Laboratory results taken from US20160316750A1, “Compounds, Compositions and Methods for Attracting and/or Arresting Bed Bugs” (priority 2013, published 2016).

How the values were obtained:
Cimex lectularius [1] = assay: three-dish, dual-choice olfactometer bioassay; assay type: in vivo
From the text: Bioassays were run in dual-choice olfactometers and in large Plexiglass arenas (FIG. 1). Dual-choice olfactometers consisted of two lateral Pyrex® glass Petri dishes, connected to a central dish (all dishes 3×9 cm inner diameter) via a Pyrex® glass tube (2.5 cm long×2 cm inner diameter). The dishes in this olfactometer mimic the natural still-air shelters in which bed bugs spend the day. Prior to the start of bioassays, a disc of paper towelling (9 cm diameter) was placed into each dish and a strip of paper towelling (2.4×0.6 cm) was inserted into the connecting glass tubing to provide traction for walking bed bugs. In addition, a piece of filter paper (2×3 cm; Whatman) was placed into each lateral dish and covered with a piece of cardboard (2×2 cm) as a refuge for bioassay insects.
Treatment and control stimuli were randomly assigned to each lateral dish. Olfactometers were enclosed in opaque plastic bins to prevent light from entering and affecting the insects' response. For each replicate, a single 3rd, 4th or 5th instar C. lectularius nymph was released into the central chamber of the olfactometer, which was then covered with a glass plate to prevent escape. The single bed bugs in each olfactometer were then allowed to explore all chambers. Each insect was released into an olfactometer at the end of the 14-h photophase allowing it to explore the chambers during 10 h of darkness, and to come to rest in one of the shelters during 10 h of light. After this 20-h period, the insect's position within the olfactometer was recorded. Any insects not found in a lateral chamber were recorded as non-responders. All experimental replicates were run at 24±2° C. and 30-60% RH. Olfactometers were washed with Sparkleen detergent (Fisher Scientific Co, Pittsburgh, Pa., USA), and were oven-dried (Precision, Winchester, Va., USA) between each bioassay.
To determine whether a blend of the 15 bed bug feces volatiles that were identified in bed bug feces (see EXAMPLE 11) attracts bed bugs and thus contains one or more bed bug pheromone components, the synthetic blend (SB) was tested at a medium dose (50 μg; Experiment 45), a low dose (5 μg; Experiment 46), and a very low dose (0.5 μg; Experiment 47) for the response of bed bugs in three-dish, dual-choice olfactometers (see EXAMPLE 2, FIG. 1). At each dose tested, all components were formulated in equal amounts in mineral oil which was pipetted into the inverted lid of a 4-ml vial. The vial was then placed on top of the corrugated cardboard shelter (see FIG. 1) in the randomly assigned treatment dish of the olfactometer (see EXAMPLE 2). The control stimulus consisted of the same type of lid on the corrugated cardboard of the control dish of the olfactometer containing mineral oil without synthetic test chemicals.

Cimex lectularius [2] = assay: large Plexiglass arena bioassay with baited and control shelters; assay type: in vivo; conditions: adult males
From the text: The large two-chamber Plexiglass arena (180 cm long×12 cm high×13 cm wide) was designed with a central divider (180 cm long×5.5 cm high) to accommodate two pieces of wood (162 cm long×3.8 cm wide×0.8 cm high), each piece for testing the response of a single bed bug to a pheromone-baited shelter or a control shelter (see insert in FIG. 1,b) which were randomly assigned to either end of the wood. […] For each replicate, a single bed bug was placed in the center of the wood piece just prior to the end of the 14-h photophase, and its position was scored the next morning after the onset of the photophase.
Experiments 68-75 also investigated the effect of the volatile pheromone components (VPCs) (E)-2-hexenal, (E)-2-octenal, dimethyl disulfide, dimethyl trisulfide and 2-hexanone, and the effect of the less-volatile pheromone component histamine (H), on attraction and arrestment of bed bugs. Treatment stimuli consisted of filter paper (4×2.2 cm) impregnated with H (2,000 μg) and covered with a piece of corrugated cardboard shelter (3×2.2 cm), and of VPCs formulated at a high dose (500 μg; Experiments 68-74) or a medium dose (50 μg; Experiment 75) in mineral oil (0.5 ml) and pipetted into the inverted lid of a 20-ml scintillation vial resting on top of the shelter (FIG. 1). Control stimuli were of identical design but the filter paper contained no H, and the mineral oil contained no VPCs.

bed bugs = assay: shelter traps in a heavily infested residential apartment (Room 106); assay type: in vivo, Cimex lectularius; conditions: 24-h periods; for Mean ± SE number insects in baited shelter: Exp. 76-79, paired shelters; for Mean (± SE) number insects in control shelter: Exp. 76-79, unbaited shelter paired with the baited shelter
From the text: To determine whether bed bugs responded to synthetic pheromone lures not only in large arena laboratory bioassays but also in infested premises (residential apartments), we placed pheromone-baited shelter traps (see FIG. 1) in apartments with known or suspected bed bug infestations. […] Based on 24-hour trapping results in multiple apartments, we selected a single, heavily infested apartment (hereafter referred to as Room 106) for further testing of synthetic bed bug pheromone lures.
Replicates (n=15-20) of each experiment consisted of paired shelters placed against a wall or furniture, with approximately 30-cm spacing between paired shelters and >1 m spacing between shelter pairs. For each shelter pair within each experiment, pheromone and control treatments were randomly assigned, and placement of replicates was alternated between the two experiments of Set 1 and Set 2. Because not more than 10 shelter pairs could be accommodated in Room 106 at any time, experimental data were collected over several consecutive 24-h periods. Every morning at 9:00, shelters were collected from Room 106 and immediately placed into separate labelled zipper lock bags which were then put on dry ice to kill the bed bugs that had entered a shelter. Bed bugs in each shelter were later counted in the laboratory under a microscope, noting their developmental stage (1st, 2nd, 3rd, 4th instar, adult), sex (male, female), and evidence (or not) for blood feeding prior to entry into a shelter Immediately following the removal of bed bug shelters from Room 106 each morning, new pre-prepared shelters were pheromone-baited (treatment) or not (control) and their position within shelter pairs randomly assigned (see above), again alternating placement of shelter pairs between Experiments 76 and 77 (Set 1) and between Experiments 78 and 79 (Set 2).

[3] = baited shelter 1 vs unbaited shelter 2, VPCs 500 μg, histamine 2,000 μg

Compound: NCCc1c[nH]cn1 [H, histamine]
- No. insects not responding (Cimex lectularius [1]; Exp. 23-37, nymphs, bait amounts in micrograms): 3
- No. insects in control chamber (Cimex lectularius [1]; Exp. 23-37, nymphs, bait in the other chamber, amounts in micrograms): 10
- No. insects in bait chamber (Cimex lectularius [1]; Exp. 23-37, nymphs, numbers in parentheses of the bait = amounts in micrograms): 35
- arrestment response by form of histamine (in words) (Cimex lectularius [1]; Experiments 26-28, dimethylaminoethanol 20 μg and histamine 20 μg as base, salt or base and salt): only as a base elicits the bed bugs' arrestment response
- bioactivity alone (in words) (Cimex lectularius [1]; Experiments 36-37, alone at 200 μg, nymphs): bioactive on its own
- No. insects in shelter 2 (Cimex lectularius [2]; Exp. 72, H (2,000 μg) in shelter 2 vs VPC (500 μg) in shelter 1): 14
- No. insects in shelter 2 (Cimex lectularius [2]; Exp. 74, H (2,000 μg) in shelter 2 vs VPC (500 μg) + H in shelter 1): 5
- No. insects in shelter 2 (Cimex lectularius [2]; Exp. 75, H (2,000 μg) in shelter 2 vs VPC (50 μg) + H in shelter 1): 0
- No. insects in shelter 1 (Cimex lectularius [2]; [3]): 12
- No. insects not responding (Cimex lectularius [2]; [3]): 5
- No. insects in shelter 2 (Cimex lectularius [2]; unbaited shelter 2, bait in shelter 1, VPCs 500 μg, histamine 2,000 μg): 1
- No. insects in shelter 2 (Cimex lectularius [2]; unbaited shelter 2, bait in shelter 1, VPCs 500 μg, histamine 2,000 μg, listed as histamine): one
- Mean ± SE number insects in baited shelter (bed bugs): 6.06 ± 1.28
- Mean ± SE number insects in baited shelter (bed bugs; listed as histamine): 6.06
- Mean (± SE) number insects in control shelter (bed bugs): 4.53 ± 1.8
- Mean (± SE) number insects in control shelter (bed bugs; listed as histamine): 4.53
